Laboratory results reported in US20220125765A1, “PHARMACEUTICAL COMBINATIONS COMPRISING MEBENDAZOLE AND A STRONG OR MODERATE CYP1A2 INHIBITOR” (ZEPHAPHARM LTD, priority 2019, published 2022).
Read-outs that look alike come from different tables or passages of the source.

Assays:
[1] = Stability in human cryopreserved hepatocytes without and with cimetidine or furafylline (Example 5); format: in vitro ADME; conditions: human, cryopreserved hepatocytes, substrate 1 μM; for half-life at 1 μM: read-out: t1/2; for hepatocyte CLint at 1 µM: read-out: intrinsic clearance
Description: The final incubation volume was 500 μL. Two control compounds were included with each species, alongside appropriate vehicle control.
The samples were analysed for mebendazole or ethoxycoumarin using LC-MS/MS.
The final incubation volume was 500 μL.
A positive control compound, ethoxycoumarin, for CYP1A2 was included. […] The samples were analysed for mebendazole or ethoxycoumarin using LC-MS/MS.

SXFO 678 = test: 2D monolayer CellTiter-Blue viability, osteosarcoma SXFO 678; format: cell-based; conditions: 72 h
Description: (§1) Seventeen compounds, including mebendazole (Batch no. […] Efficacy of compounds was assessed using CellTiter-Blue® Cell Viability Assay. Anti-tumor activity is expressed as absolute and relative IC50 and IC70 values, calculated by non-linear regression analysis.

A2780 = test: 2D monolayer CellTiter-Blue viability, ovarian cancer A2780; format: cell-based; conditions: for Test/Control (%) at Drug Concentration: 72 h; for IC50: Homo sapiens
Description: (§2) Mebendazole was tested in vitro across a panel of 12 tumor cell lines of ovarian and renal cancer by using a 2D monolayer assay. […] OVXF 899L and RXF 486L are P-gp expressing, multidrug resistant cell lines.
(§3) Anti-tumor activity is expressed as absolute and relative IC50/70 values, calculated by 4-parameter non-linear curve fit.

[2] = tested on: 8 neuroblastoma and 13 sarcoma derived cell lines; test: 2D monolayer CellTiter-Blue viability, panel geometric mean (Example 9); format: cell-based; conditions: 21 cell lines, 72 hours
Description: as §1

RXF 1220L = test: 2D monolayer CellTiter-Blue viability, renal cancer RXF 1220L; format: cell-based; conditions: for Test/Control (%) at Drug Concentration: 72 h
Description: as §2, §3

COC(=O)Nc1nc2ccc(C(=O)c3ccccc3)cc2[nH]1 [Mebendazole, methyl N-(6-benzoyl-1H-benzimidazol-2-yl)carbamate]
half-life at 1 μM ([1]; with cimetidine 30 μM, cimetidine 30 μM): 105 min
hepatocyte CLint at 1 µM ([1]; with cimetidine 100 μM, 100 μM cimetidine): 14.7 µL/min/1e6 cells
half-life at 1 μM ([1]; with cimetidine 100 μM, cimetidine 100 μM): 94.1 min
hepatocyte CLint at 1 µM ([1]; with cimetidine 300 μM, 300 μM cimetidine): 9.98 µL/min/1e6 cells
half-life at 1 μM ([1]; with cimetidine 300 μM, cimetidine 300 μM): 139 min
hepatocyte CLint at 1 µM ([1]; with furafylline 3 μM, 3 μM furafylline): 3.47 µL/min/1e6 cells
half-life at 1 μM ([1]; with furafylline 3 μM, furafylline 3 μM): 399 min
half-life at 1 μM ([1]; with furafylline 10 μM, furafylline 10 μM): 570 min
half-life at 1 μM ([1]; with furafylline 30 μM, furafylline 30 μM): 941 min
Test/Control (%) at Drug Concentration (SXFO 678; SXFO 678, 1.0E+00 μM): 11%
Test/Control (%) at Drug Concentration (SXFO 678; SXFO 678, 1.0E+01 μM): 28%
Test/Control (%) at Drug Concentration (SXFO 678; SXFO 678, 1.0E+02 μM): 11%
Test/Control (%) at Drug Concentration (SXFO 678; SXFO 678, 1.0E−01 μM): 64%
Test/Control (%) at Drug Concentration (SXFO 678; SXFO 678, 1.0E−02 μM): 87%
Test/Control (%) at Drug Concentration (SXFO 678; SXFO 678, 3.2E+00 μM): 22%
Test/Control (%) at Drug Concentration (SXFO 678; SXFO 678, 3.2E+01 μM): 21%
Test/Control (%) at Drug Concentration (SXFO 678; SXFO 678, 3.2E−01 μM): 14%
Test/Control (%) at Drug Concentration (SXFO 678; SXFO 678, 3.2E−02 μM): 88%
Test/Control (%) at Drug Concentration (SXFO 678; SXFO 678, 3.2E−03 μM): 90%
Test/Control (%) at Drug Concentration (A2780; A2780, 1.0E+00 μM): 26%
Test/Control (%) at Drug Concentration (A2780; A2780, 1.0E−01 μM): 91%
Test/Control (%) at Drug Concentration (A2780; A2780, 1.0E−02 μM): 96%
Test/Control (%) at Drug Concentration (A2780; A2780, 1.0E−03 μM): 95%
Test/Control (%) at Drug Concentration (A2780; A2780, 1.0E−04 μM): 115%
Test/Control (%) at Drug Concentration (A2780; A2780, 3.2E+00 μM): 13%
Test/Control (%) at Drug Concentration (A2780; A2780, 3.2E−01 μM): 30%
Test/Control (%) at Drug Concentration (A2780; A2780, 3.2E−02 μM): 97%
Test/Control (%) at Drug Concentration (A2780; A2780, 3.2E−03 μM): 99%
Test/Control (%) at Drug Concentration (A2780; A2780, 3.2E−04 μM): 109%
Abs. IC70 (A2780; A2780, 72 h): 0.323 µM
Rel. IC70 (A2780; A2780, 72 h): 0.231 µM
Bot. (%) (A2780; A2780, 72 h, curve fit): 19%
Top (%) (A2780; A2780, 72 h, curve fit): 102%
IC50 (A2780; A2780, 72 h, read-out: Abs. IC50): 209 nM
IC50 (A2780; A2780, 72 h, read-out: Rel. IC50): 178 nM
IC50 ([2]; read-out: absolute geometric mean IC50): 291 nM
IC50 ([2]; read-out: relative geometric mean IC50): 280 nM
Test/Control (%) at Drug Concentration (RXF 1220L; RXF 1220, 1.0E+00 μM): 70%
Test/Control (%) at Drug Concentration (RXF 1220L; RXF 1220, 1.0E−01 μM): 99%
Test/Control (%) at Drug Concentration (RXF 1220L; RXF 1220, 1.0E−02 μM): 113%
Test/Control (%) at Drug Concentration (RXF 1220L; RXF 1220, 1.0E−03 μM): 98%
Test/Control (%) at Drug Concentration (RXF 1220L; RXF 1220, 1.0E−04 μM): 99%
Test/Control (%) at Drug Concentration (RXF 1220L; RXF 1220, 3.2E+00 μM): 61%
Test/Control (%) at Drug Concentration (RXF 1220L; RXF 1220, 3.2E−01 μM): 83%
Test/Control (%) at Drug Concentration (RXF 1220L; RXF 1220, 3.2E−02 μM): 99%
Test/Control (%) at Drug Concentration (RXF 1220L; RXF 1220, 3.2E−03 μM): 106%
Test/Control (%) at Drug Concentration (RXF 1220L; RXF 1220, 3.2E−04 μM): 102%
Abs. IC70 (RXF 1220L; RXF 1220, 72 h): >3.200 µM
Rel. IC70 (RXF 1220L; RXF 1220, 72 h): 0.751 µM
Bot. (%) (RXF 1220L; RXF 1220, 72 h, curve fit): 59%
Top (%) (RXF 1220L; RXF 1220, 72 h, curve fit): 103%
IC50 (RXF 1220L; RXF 1220, 72 h, read-out: Abs. IC50): > 3200 nM
IC50 (RXF 1220L; RXF 1220, 72 h, read-out: Rel. IC50): 398 nM
